# Experimental data reported in patent publication US9222137B2, “Method for monitoring minimal residual hairy cell leukemia” (Trovagene, Inc., priority 2011, dated 2015).
# “Also recorded” adds a separate entry of the source.
# Tests used:
# [1] = test system: phosphorylated MEK and ERK in purified primary HCL cells (BRAF V600E); assay: Western blot analysis of MEK and ERK phosphorylation in purified HCL cells incubated in vitro with BRAF inhibitor; assay type: cell-based, human; conditions: primary leukemic HCL cells; 250 nM, 500 nM or 1000 nM (≦1 μM); 2, 6 and 24 h incubation; vs vehicle (DMSO)
# Experimental: Fresh leukemic cells purified from the peripheral blood of 5 patients with HCL were seeded in triplicate (2 to 3×10^5 cells/well, depending on the patient) in 96-well flat-bottom plates, and left recovering by overnight incubation at 37° C. and 5% CO2 in cell culture medium (RPMI1640 with 10% fetal bovine serum, glutamine and antibiotics). […] DMSO (the drug vehicle) was added in parallel wells as control. Cells were then harvested at different time points (2 h, 6 h and 24 h), washed 3 times in PBS, lysed in Laemmli sample buffer and boiled at 95° C. for 5 minutes. […] Protein lysates (6 to 7.5×10^4 fresh cell equivalent, depending on the patient; 2×10^5 frozen cell equivalent) were separated by SDS-polyacrylamide gel electrophoresis (SDS-PAGE) on pre-cast electrophoresis gels (12% Resolving gel cat. 456-1043 or Any kD Resolving Gel cat. 456-9036, Biorad), transferred to a 0.45 um pore size nitrocellulose transfer membrane (Whatman GmbH, Dassel, Germany), and probed with specific primary antibodies directly or after stripping (with Restore Western Blot Stripping Buffer, Pierce/Thermo Scientific cat. 21059). The anti-phospho-ERK1/2 (clone D13.14.4E; 1:2000 dilution), anti-phospho-MEK1/2 (clone 166F8; 1:1000 dilution), anti-ERK1/2 (clone 137F5; 1:1000 dilution) rabbit monoclonal antibodies and the anti-MEK1/2 (clone L38C12; 1:1000 dilution) mouse monoclonal antibody were all from Cell Signaling Technology. Upon incubation with horseradish peroxidase-conjugated secondary antibodies (GE Healthcare Lifesciences, Uppsala, Sweden), polypeptides were visualized using an enhanced chemiluminescence (ECL) western blot detection kit according to the manufacturer's instruction (GE Healthcare Lifesciences). Protein lysates (3×10^4 to 2×10^5 cell equivalent, depending on the experiment) from either serum-starved (45 min at 37° C. and 5% CO2 in RPMI1640) or unstarved human leukemic T-cell line Jurkat cells were used as negative and positive control, respectively, for ERK1/2 and MEK1/2 phosphorylation.
# Membranes were probed with antibodies against phospho-ERK, phosphoMEK, total ERK and total MEK, as indicated on the far right. Protein lysates from either serum-starved or unstarved human leukemic Jurkat T cell line cells were used as negative (−) and positive (+) control, respectively, for ERK and MEK phosphorylation.
# hairy cell leukemia = assay: Case report: index HCL patient treated with pentostatin; assay type: in vivo, human
# Text: Splenomegaly was present. […] At immunohistochemistry, leukemic cells were positive for CD20, DBA44, CD68 and Annexin-A1; expression of CD20, CD11c, CD25 and CD103 was documented by flow cytometry.
SMILES,"phosphorylation of ERK (phospho-ERK, Western blot) [1]","phosphorylation of MEK (phospho-MEK, Western blot) [1]",clinical outcome after therapy (hairy cell leukemia)
CCCS(=O)(=O)Nc1ccc(F)c(C(=O)c2c[nH]c3ncc(Cl)cc23)c1F [PLX-4720],dose-dependent dephosphorylation; also recorded: marked decrease,dose-dependent dephosphorylation; also recorded: marked decrease,–
OC[C@H]1O[C@@H](n2cnc3c2NC=NC[C@H]3O)C[C@@H]1O [pentostatin],–,–,complete hematological remission
